# Key:
# [1] = test system: rabbit serum obtained by immunizing a rabbit with the SARS-CoV strain Frankfurt 1; format: binding; parameters: Binding of a rabbit serum to linear peptides / Binding of a rabbit serum to looped peptides / Rabbit serum linear peptides / Rabbit serum looped peptides / Binding of a rabbit serum to linear peptides of protein N of SARS-CoV Urbani (Rabbit serum linear peptides) / Binding of a rabbit serum to looped/cyclic peptides of protein N of SARS-CoV Urbani (Rabbit serum looped peptides): unit not given here
# [2] = test system: recombinant human anti-SARS-CoV antibody 03-018; format: binding; parameters: Binding of antibody 03-018 to linear peptides of the N protein of SARS-CoV Urbani / Binding of antibody 03-018 to looped/cyclic peptides of the N protein of SARS-CoV Urbani: unit not given here
# [3] = test system: control sera (pooled serum of ten healthy LUMC hospital workers; commercial negative donor pooled serum from the Dutch bloodbank); format: binding, human; parameters: Binding of Control serum LUMC to linear peptides / Binding of Control serum Blood-bank to linear peptides / Binding of Control serum LUMC to looped peptides / Binding of Control Serum Blood-Bank to Looped peptides / Binding of Control serum LUMC to linear peptides of the protein M of SARS-CoV Urbani / Binding of Control serum Blood-bank to linear peptides of the protein M of SARS-CoV Urbani / Binding of Control serum LUMC to looped peptides of the protein M of SARS-CoV Urbani / Binding of Control Serum Blood-Bank to Looped peptides of the protein M of SARS-CoV Urbani: unit not given here
# [4] = test system: antibodies in sera from SARS patients (sera 1a, 1b, 2, 6, 37, 62, London, SARS-yellow, SARS-green); format: binding, human; parameters: Binding of serum 6 to linear peptides of protein X1 of SARS-CoV Urbani / Binding of serum 37 to linear peptides of protein X1 of SARS-CoV Urbani / Binding of serum 6 to looped/cyclic peptide (PEPSCAN-ELISA) / Binding of serum 37 to looped/cyclic peptide (PEPSCAN-ELISA) / Binding of serum 37 to looped/cyclic peptides of protein X1 of SARS-CoV Urbani / Binding of serum 6 to linear peptides of protein X2 / Binding of serum 37 to linear peptides of protein X2 / Binding of serum 37 to looped/cyclic peptides of protein X2 of SARS-CoV Urbani / Binding of serum 6 to linear peptides of protein M of SARS-CoV Urbani / Binding of serum 37 to linear peptides of protein M of SARS-CoV Urbani / Binding of serum 6 to looped/cyclic peptides of protein M of SARS-CoV Urbani / Binding of serum 37 to looped/cyclic peptides of protein M of SARS-CoV Urbani / Binding of serum 6 to linear peptides of protein X3 of SARS-CoV Urbani / Binding of serum 37 to linear peptides of protein X3 of SARS-CoV Urbani / Binding of serum 37 to looped/cyclic peptides of protein X3 of SARS-CoV Urbani / Binding of serum 6 to linear peptides of protein X4 of SARS-CoV Urbani / Binding of serum 37 to linear peptides of protein X4 of SARS-CoV Urbani / Binding of serum 37 to looped/cyclic peptides of protein X4 of SARS-CoV Urbani / Binding of serum 6 to linear peptides of protein X5 of SARS-CoV Urbani / Binding of serum 37 to linear peptides of protein X5 of SARS-CoV Urbani / Binding of serum 37 to looped/cyclic peptides of protein X5 of SARS-CoV Urbani / Binding of serum 6 to linear peptides of protein N of SARS-CoV Urbani / Binding of serum 37 to linear peptides of protein N of SARS-CoV Urbani / Binding of serum 6 to linear peptide (PEPSCAN-ELISA) / Binding of serum 1a to looped/cyclic peptides of protein N of SARS-CoV Urbani / Binding of serum 1b to looped/cyclic peptides of protein N of SARS-CoV Urbani / Binding of serum 2 to looped/cyclic peptides of protein N of SARS-CoV Urbani / Binding of serum 6 to looped/cyclic peptides of protein N of SARS-CoV Urbani / Binding of serum 37 to looped/cyclic peptides of protein N of SARS-CoV Urbani / Binding of serum 62 to looped/cyclic peptides of protein N of SARS-CoV Urbani / Binding of serum London to looped/cyclic peptides of protein N of SARS-CoV Urbani / Binding of serum SARS-green to looped/cyclic peptides of protein N of SARS-CoV Urbani: unit not given here
Sequence,Binding of a rabbit serum to linear peptides of protein N of SARS-CoV Urbani (Rabbit serum linear peptides) [1],Binding of a rabbit serum to looped/cyclic peptides of protein N of SARS-CoV Urbani (Rabbit serum looped peptides) [1],Binding of antibody 03-018 to linear peptides of the N protein of SARS-CoV Urbani [2],Binding of antibody 03-018 to looped/cyclic peptides of the N protein of SARS-CoV Urbani [2],Binding of serum 1a to looped/cyclic peptides of protein N of SARS-CoV Urbani [4],Binding of serum 1b to looped/cyclic peptides of protein N of SARS-CoV Urbani [4],Binding of serum 2 to looped/cyclic peptides of protein N of SARS-CoV Urbani [4],Binding of serum 6 to looped/cyclic peptides of protein N of SARS-CoV Urbani [4],Binding of serum 37 to looped/cyclic peptides of protein N of SARS-CoV Urbani [4],Binding of serum 62 to looped/cyclic peptides of protein N of SARS-CoV Urbani [4],Binding of serum London to looped/cyclic peptides of protein N of SARS-CoV Urbani [4],Binding of serum SARS-green to looped/cyclic peptides of protein N of SARS-CoV Urbani [4],Binding of serum SARS-yellow to looped/cyclic peptides of protein N of SARS-CoV Urbani [4],Binding of Control Serum Blood-Bank to Looped peptides [3],Binding of Control serum Blood-bank to linear peptides [3],Binding of Control serum LUMC to linear peptides [3],Binding of Control serum LUMC to looped peptides [3],Binding of serum 1a to linear peptide (PEPSCAN-ELISA) [4],Binding of serum 1b to linear peptide (PEPSCAN-ELISA) [4],Binding of serum 2 to linear peptide (PEPSCAN-ELISA) [4],further results
TPSGTWLTYHGAIKL,0.1,0.4,0.1,0.2,0.4,0.2,0.4,0.2,0.8,0.8,0.5,0.3,0.4,,,,,,,,Control Serum Blood-Bank Looped peptides [3]: 0.7; Control serum Blood-bank linear peptides [3]: 0.8; Control serum LUMC linear peptides [3]: 0.6; Control serum LUMC looped peptides [3]: 0.5; Binding of serum 1a to linear peptides of protein N of SARS-CoV Urbani [4]: 0.2; Binding of serum 1b to linear peptides of protein N of SARS-CoV Urbani [4]: 0.1; Binding of serum 2 to linear peptides of protein N of SARS-CoV Urbani [4]: 0.2; Binding of serum 6 to linear peptides of protein N of SARS-CoV Urbani [4]: 0.2; Binding of serum 37 to linear peptides of protein N of SARS-CoV Urbani [4]: 0.7; Binding of serum 62 to linear peptides of protein N of SARS-CoV Urbani [4]: 0.6; Binding of serum London to linear peptides of protein N of SARS-CoV Urbani [4]: 0.7; Binding of serum SARS-green to linear peptides of protein N of SARS-CoV Urbani [4]: 0.3; Binding of serum SARS-yellow to linear peptides of protein N of SARS-CoV Urbani [4]: 0.5
YAEGSRGGSQASSRS,0.2,0.0,0.1,0.2,0.3,0.2,0.3,0.2,0.4,0.2,0.3,0.3,0.1,0.4,0.9,0.7,0.6,0.3,0.1,0.3,Binding of serum 6 to linear peptide (PEPSCAN-ELISA) [4]: 0.4; Binding of serum 37 to linear peptide (PEPSCAN-ELISA) [4]: 0.7; Binding of serum 62 to linear peptide (PEPSCAN-ELISA) [4]: 0.7; Binding of serum London to linear peptide (PEPSCAN-ELISA) [4]: 0.5; Binding of serum SARS-green to linear peptide (PEPSCAN-ELISA) [4]: 0.6; Binding of serum SARS-yellow to linear peptide (PEPSCAN-ELISA) [4]: 0.6
KVSGKGQQQQGQTVT,0.2,0.4,0.1,0.2,0.3,0.2,0.5,0.3,0.4,0.4,0.6,0.5,0.3,0.6,0.8,0.7,0.5,0.3,0.1,0.3,Binding of serum 6 to linear peptide (PEPSCAN-ELISA) [4]: 0.2; Binding of serum 37 to linear peptide (PEPSCAN-ELISA) [4]: 0.6; Binding of serum 62 to linear peptide (PEPSCAN-ELISA) [4]: 0.6; Binding of serum London to linear peptide (PEPSCAN-ELISA) [4]: 0.5; Binding of serum SARS-green to linear peptide (PEPSCAN-ELISA) [4]: 0.6; Binding of serum SARS-yellow to linear peptide (PEPSCAN-ELISA) [4]: 0.6
GPDDQIGYYRRATRR,,,0.1,0.3,0.4,0.3,0.5,0.4,0.8,0.8,0.5,0.6,0.9,0.9,0.8,0.8,0.9,,,,Recognition of the peptide by the rabbit serum [1]: recognized; Binding of serum 1a to linear peptides of protein N of SARS-CoV Urbani [4]: 0.2; Binding of serum 1b to linear peptides of protein N of SARS-CoV Urbani [4]: 0.1; Binding of serum 2 to linear peptides of protein N of SARS-CoV Urbani [4]: 0.2; Binding of serum 6 to linear peptides of protein N of SARS-CoV Urbani [4]: 0.2; Binding of serum 37 to linear peptides of protein N of SARS-CoV Urbani [4]: 0.6; Binding of serum 62 to linear peptides of protein N of SARS-CoV Urbani [4]: 0.6; Binding of serum London to linear peptides of protein N of SARS-CoV Urbani [4]: 0.4; Binding of serum SARS-green to linear peptides of protein N of SARS-CoV Urbani [4]: 0.3; Binding of serum SARS-yellow to linear peptides of protein N of SARS-CoV Urbani [4]: 0.6
QQQQGQTVTKKSAAE,0.3,0.0,0.1,0.2,0.3,0.1,0.3,0.1,0.3,0.2,0.2,0.0,0.1,0.2,0.6,0.6,0.2,0.8,0.3,0.7,Binding of serum 6 to linear peptide (PEPSCAN-ELISA) [4]: 0.2; Binding of serum 37 to linear peptide (PEPSCAN-ELISA) [4]: 0.7; Binding of serum 62 to linear peptide (PEPSCAN-ELISA) [4]: 0.7; Binding of serum London to linear peptide (PEPSCAN-ELISA) [4]: 0.7; Binding of serum SARS-green to linear peptide (PEPSCAN-ELISA) [4]: 0.3; Binding of serum SARS-yellow to linear peptide (PEPSCAN-ELISA) [4]: 0.9
